Values after ≈ are worked out from the molar mass of the structure shown.
Assays:
[1] = test system: Aspergillus flavus; test: Antifungal activity against Aspergillus flavus after 48 hrs by micro-broth dilution method; type: functional
[2] = test system: Aspergillus fumigatus; test: Antifungal activity against Aspergillus fumigatus after 48 hrs by micro-broth dilution method; type: functional
[3] = test system: Aspergillus flavus; test: Antifungal activity against Aspergillus flavus after 10 hrs by spore germination inhibition assay; type: functional
[4] = test system: Aspergillus niger; test: Antifungal activity against Aspergillus niger after 10 hrs by spore germination inhibition assay; type: functional
[5] = test system: Aspergillus niger; test: Antifungal activity against Aspergillus niger after 48 hrs by micro-broth dilution method; type: functional
[6] = test system: Aspergillus fumigatus; test: Antifungal activity against Aspergillus fumigatus after 10 hrs by spore germination inhibition assay; type: functional
[7] = test system: Escherichia coli; test: Antibacterial activity against Escherichia coli after 18 hrs by disk diffusion method; type: functional, organism-based
[8] = test system: Escherichia coli; test: Antibacterial activity against Escherichia coli by micro dilution method; type: functional, organism-based

**Q.** Which MIC [1] does the source give for `C[C@@H]1[C@H](O)[C@@H](C)/C=C/C=C/C=C/C=C/C=C/C=C/C=C/[C@H](O[C@@H]2O[C@H](C)[C@@H](O)[C@H](N)[C@@H]2O)C[C@@H]2O[C@](O)(C[C@@H](O)C[C@@H](O)[C@H](O)CC[C@@H](O)C[C@@H](O)CC(=O)O[C@H]1C)C[C@H](O)[C@H]2C(=O)O` [AMPHOTERICIN B] here?
**A.** 5 µg/mL (≈ 5.41 µM)

**Q.** And the MIC [2]?
**A.** 5 µg/mL (≈ 5.41 µM)

**Q.** What about the MIC [3] of the same compound?
**A.** 5 µg/mL (≈ 5.41 µM)

**Q.** And the MIC [4]?
**A.** 5 µg/mL (≈ 5.41 µM)

**Q.** And the MIC [5]?
**A.** 5 µg/mL (≈ 5.41 µM)

**Q.** What about the MIC [6] of the same compound?
**A.** 5 µg/mL (≈ 5.41 µM)

**Q.** What does the source list for GENTAMICIN?
**A.** inhibition zone (IZ) [7]: 16 mm; MIC [8]: 1 µg

— ChEMBL document CHEMBL1148696, “Synthesis, characterization, cytotoxicity, antibacterial and antifungal evaluation of some new platinum (IV) and palladium (II) complexes of thiodiamines” (2007)
